Data on five molecules can be found in ChEMBL document CHEMBL1782056, “A novel series of piperazinyl-pyridine ureas as antagonists of the purinergic P2Y12 receptor” (Bioorg Med Chem Lett, 2011).

≈ marks a conversion by molar mass, not a printed value.

The nature of this data set: physchem. The settings on record: HBSS buffer, pH 6.5.
What is called solubility is how much of the substance goes into solution per volume. `CCOC(=O)c1cnc(N2CCN(C(=O)Nc3ccccc3)CC2)c(C#N)c1` returned a solubility of 90 µM (≈ 34.1 µg/mL).

In turn, `C[C@]12CC[C@H]3[C@@H](CCC4=CC(=O)CC[C@@]43C)[C@@H]1CC[C@@H]2O` [TESTOSTERONE] came in with a solubility of 75 µM (≈ 21.6 µg/mL).

`CCOC(=O)C1=C(C)NC(C)=C(C(=O)OC)C1c1cccc(Cl)c1Cl` (stereo not given) [FELODIPINE]: the concentration in solution (solubility) was 1 µM (≈ 0.384 µg/mL).

In the case of `CCOC(=O)c1cnc(N2CCN(C(=O)Nc3ccccc3)CC2)c(Cl)c1`, the solubility came out at 40 µM (≈ 15.6 µg/mL).

The molecule `CCOC(=O)c1cc(C#N)c(N2CCN(C(=O)Nc3ccccc3)CC2)nc1C(F)(F)F` showed a solubility of less than 0.1 µM.
